{"source": "patent US11787816B2", "about": "“Chlorin compound, and preparation and use thereof” (Southwest Jiaotong University, priority 2021, dated 2023)", "key": {"[1]": {"test_system": "murine mammary carcinoma 4T1 cells", "assay": "Antitumor activity as photosensitizers on tumor-bearing mice (one PDT treatment)", "format": "in vivo", "conditions": "for Inhibitory rate (average ± SD, %) / Tumor weight (average ± SD, g): 660 nm, 75 Joule/cm^2 6 h after dosing, 7 days after PDT; for Body weight At the begining / Body weight At the end: one PDT treatment, mice, in g (unit assumed)", "method": "(§1) The murine mammary carcinoma cells (4T1 line) were subjected to adherent culture. After growing to a confluence of 70%-80%, the cells in the culture flask were routinely digested, centrifuged and counted, and then resuspended with 0.85% normal saline to a density of 1×10^7 cells/mL. The cell suspension was injected into the left lateral middle axillary subcutaneous part of […] Bal b/c healthy mice (female, aged 6-8 weeks) at 0.1 mL/mouse. When the tumor diameter, which was observed every other day, reached 0.6-0.8 cm, the mice with well-growing tumors and no ulcers on the epidermis were selected for grouped treatment.\n(1) Mice with similar body weight and uniform tumor size are selected and randomly divided into 7 groups with 6 mice for each group. After inoculation for 48 h, the mice were subjected to drug administration separately from the tail vein by group.\n6 h after the drug administration, the mice were fixed to expose the tumor growth site. Light irradiation was performed for 8 min, using PDT-660 photodynamic therapy equipment at a laser wavelength of 660 nm and a light dose of 75 Joule/cm^2. Then both of the mice growth and tumor growth are observed continuously. 7 days after photodynamic therapy, the animals were sacrificed. The tumor was stripped and weighed, and the body weight was recorded."}, "[2]": {"test_system": "murine mammary carcinoma 4T1 cells", "assay": "Photosensitizer-mediated PDT, in vitro proliferation (MTT), 4T1", "format": "cell-based", "method": "(§2) Several kinds of tumor cells (human cervical cancer Hela cells, human hepatocellular carcinoma huh-7 cells and murine mammary carcinoma 4T1 cells) cultured in vitro from a variety of tissues were taken as cell models, so as to investigate the photodynamic effects mediated by different doses of CEFN, CEFO, Ce6 and HPPH on the three different tumor cells (n=3). The specific experimental procedures were carried out as follows.\n(§3) Cells in the logarithmic growth phase were harvested and seeded in a 24-well plate. After growing to a confluence of 70-80%, the cells were randomly divided into a control group (free of drug and light irradiation), a drug group and a photodynamic group. The CEFN, CEFO, Ce6 and HPPH were added respectively in dark, and for each drug, four final concentrations 1, 2, 5, and 10 μg/mL were set with 3 replicates for each group. After the co-incubation, the groups were treated individually. Regarding the photodynamic group, the light irradiation was performed at a wavelength of 660 nm and three different light intensities, i.e., 2, 4 and 8 J/cm^2. After that, each group was digested, and were inoculated into a 96-well plate at 100 μL per well with 4 replicates for each treatment. 24 hours later, the 96-well plate was subjected to MTT assay as follows. Each well was added with 20 μL of MTT (3-4,5-dimethylthiazol-2,5-diphenyltetrazolium bromide) solution in the dark and incubated for 4 hours. The supernatant was discarded, and the residue was dissolved with 150 μL of dimethyl sulfoxide for 15 min. After that, the 96-well plate was measured by a microplate reader for the absorbance (OD value). The relative cell viability was calculated as follows: relative cell viability=OD value of experimental group/OD value of control group*100%.\nIn this experiment, photodynamic effect mediated by the compounds (except CEFO and CEFN) in different Examples of this disclosure on the murine mammary carcinoma 4T1 cells was investigated. The experimental procedures are carried out as follows. Cells in the logarithmic growth phase were harvested and seeded in a 24-well plate. After growing to a confluence of 70-80%, the cells were randomly divided into multiple photodynamic groups and multiple no-light control groups. The compounds (as shown in Table 8a) with a final concentration of 10 μg/mL were added to each group respectively in dark with 3 replicates for each group, so as to co-incubate the cells with the drug. Regarding the multiple photodynamic groups, the light irradiation was performed at a wavelength of 660 nm and the light intensity of 8 J/cm^2. After that, each group was digested, and were inoculated into a 96-well plate at 100 μL per well with 4 replicates for light treatment and no light treatment. 24 hours later, the 96-well plate was measured by MTT assay as follows. Each well was added with 20 μL of MTT (3-4,5-dimethylthiazol-2,5-diphenyltetrazolium bromide) solution in the dark and incubated for 4 hours. The supernatant was discarded, and the residue was dissolved with 150 μL of dimethyl sulfoxide for 15 min. After that, the 96-well plate was measured by a microplate reader for the absorbance (OD value). The relative cell viability of the murine mammary carcinoma 4T1 cells was calculated as follows according to the measured absorbance (OD value) in each group: relative cell viability=OD value of experimental group/OD value of control group*100%."}, "[3]": {"test_system": "murine mammary carcinoma 4T1 cells", "assay": "Antitumor activity as photosensitizers on tumor-bearing mice (two PDT treatments)", "format": "in vivo", "method": "as §1\n(2) Mice with similar body weight and uniform tumor size are selected and randomly divided into 4 groups with 6 mice for each group. After inoculation of 4T1 cells and the tumor volume grows to 50˜80 mm^3, the mice were subjected to a first drug administration from the tail vein by group.\n6 h after the drug administration, the mice were fixed to expose the tumor growth site. As a first PDT treatment, light irradiation was performed for 8 min, using PDT-660 photodynamic therapy equipment at the laser wavelength of 660 nm and the light dose of 150 Joule/cm^2. One week later, the second PDT treatment (the dosage and lighting conditions were the same as those of the first PDT treatment) was performed. The mice were sacrificed 14 days after the treatment. The tumor was removed, weighed and recorded."}, "[4]": {"conditions": "background statement; cited from earlier work"}, "[5]": {"test_system": "human cervical cancer Hela cells", "assay": "Photosensitizer-mediated PDT, in vitro proliferation (MTT), Hela", "format": "cell-based", "conditions": "Hela", "method": "as §2, §3"}, "[6]": {"test_system": "human hepatocellular carcinoma huh-7 cells", "assay": "Photosensitizer-mediated PDT, in vitro proliferation (MTT), huh-7", "format": "cell-based", "method": "as §2, §3"}, "[7]": {"conditions": "0.25 mg/kg tail vein, two PDT treatments one week apart, 660 nm, 150 Joule/cm^2, 14 days after treatment"}, "[8]": {"conditions": "0.25 mg/kg, two PDT treatments, mice, in g (unit assumed)"}}}
{"smiles": "CCCCCCOC(C)c1c(C)c2cc3nc(c4c5[nH]c(cc6nc(cc1[nH]2)C(C)=C6CC)c(C)c5C(=O)C4)[C@@H](CCC(=O)O)[C@@H]3C", "note": "(stereo partly shown) [HPPH, 2-(1-hexyloxyethyl)-2-devinyl pyropheophorbide-a, reference compound]", "values": [{"measurement": "Inhibitory rate (average ± SD, %)", "setting": "[1]; 0.2 mg/kg tail vein", "result": "72.2 ± 3.5", "unit": "%"}, {"measurement": "Tumor weight (average ± SD, g)", "setting": "[1]; 0.2 mg/kg tail vein", "result": "0.045 ± 0.006", "unit": "g"}, {"measurement": "Body weight At the begining", "setting": "[1]; 0.2 mg/kg", "result": "20.5 ± 0.4"}, {"measurement": "Body weight At the end", "setting": "[1]; 0.2 mg/kg", "result": "21.6 ± 0.4"}, {"measurement": "Inhibitory rate (average ± SD, %)", "setting": "[1]; 0.4 mg/kg tail vein", "result": "89.5 ± 2.5", "unit": "%"}, {"measurement": "Tumor weight (average ± SD, g)", "setting": "[1]; 0.4 mg/kg tail vein", "result": "0.017 ± 0.004", "unit": "g"}, {"measurement": "Body weight At the begining", "setting": "[1]; 0.4 mg/kg", "result": "20.7 ± 0.3"}, {"measurement": "Body weight At the end", "setting": "[1]; 0.4 mg/kg", "result": "21.8 ± 0.2"}, {"measurement": "cell viability (%)", "setting": "[2]; 1 μg/mL, 660 nm, 8 J/cm^2", "result": "83 ± 3", "unit": "%"}, {"measurement": "cell viability (%)", "setting": "[2]; 1 μg/mL, no light", "result": "107 ± 4", "unit": "%"}, {"measurement": "cell viability (%)", "setting": "[2]; 2 μg/mL, 660 nm, 8 J/cm^2", "result": "53 ± 2", "unit": "%"}, {"measurement": "cell viability (%)", "setting": "[2]; 2 μg/mL, no light", "result": "103 ± 2", "unit": "%"}, {"measurement": "cell viability (%)", "setting": "[2]; 5 μg/mL, 660 nm, 8 J/cm^2", "result": "33 ± 2", "unit": "%"}, {"measurement": "cell viability (%)", "setting": "[2]; 5 μg/mL, no light", "result": "98 ± 1", "unit": "%"}, {"measurement": "cell viability (%)", "setting": "[2]; 10 μg/mL, 660 nm, 8 J/cm^2", "result": "11 ± 2", "unit": "%"}, {"measurement": "cell viability (%)", "setting": "[2]; 10 μg/mL, no light", "result": "99 ± 44", "unit": "%"}, {"measurement": "Inhibitory rate (average ± SD, %)", "setting": "[3]; [7]", "result": "90.7 ± 2.1", "unit": "%"}, {"measurement": "Tumor weight (average ± SD, g)", "setting": "[3]; [7]", "result": "0.088 ± 0.020", "unit": "g"}, {"measurement": "Body weight At the beginning", "setting": "[3]; [8]", "result": "20.5 ± 0.4"}, {"measurement": "Body weight At the end", "setting": "[3]; [8]", "result": "22.5 ± 0.2"}, {"measurement": "water solubility", "setting": "[4]", "result": "water-insoluble"}, {"measurement": "cell viability (%)", "setting": "[5]; 1 μg/mL, 660 nm, 8 J/cm^2", "result": "65 ± 4", "unit": "%"}, {"measurement": "cell viability (%)", "setting": "[5]; 1 μg/mL, no light", "result": "100 ± 3", "unit": "%"}, {"measurement": "cell viability (%)", "setting": "[5]; 2 μg/mL, 660 nm, 8 J/cm^2", "result": "46 ± 1", "unit": "%"}, {"measurement": "cell viability (%)", "setting": "[5]; 2 μg/mL, no light", "result": "100 ± 2", "unit": "%"}, {"measurement": "cell viability (%)", "setting": "[5]; 5 μg/mL, 660 nm, 8 J/cm^2", "result": "25 ± 2", "unit": "%"}, {"measurement": "cell viability (%)", "setting": "[5]; 5 μg/mL, no light", "result": "102 ± 3", "unit": "%"}, {"measurement": "cell viability (%)", "setting": "[5]; 10 μg/mL, 660 nm, 8 J/cm^2", "result": "12 ± 4", "unit": "%"}, {"measurement": "cell viability (%)", "setting": "[5]; 10 μg/mL, no light", "result": "96 ± 4", "unit": "%"}, {"measurement": "cell viability (%)", "setting": "[6]; 1 μg/mL, 660 nm, 8 J/cm^2", "result": "68 ± 3", "unit": "%"}, {"measurement": "cell viability (%)", "setting": "[6]; 1 μg/mL, no light", "result": "102 ± 4", "unit": "%"}, {"measurement": "cell viability (%)", "setting": "[6]; 2 μg/mL, 660 nm, 8 J/cm^2", "result": "37 ± 3", "unit": "%"}, {"measurement": "cell viability (%)", "setting": "[6]; 2 μg/mL, no light", "result": "98 ± 2", "unit": "%"}, {"measurement": "cell viability (%)", "setting": "[6]; 5 μg/mL, 660 nm, 8 J/cm^2", "result": "26 ± 2", "unit": "%"}, {"measurement": "cell viability (%)", "setting": "[6]; 5 μg/mL, no light", "result": "97 ± 1", "unit": "%"}, {"measurement": "cell viability (%)", "setting": "[6]; 10 μg/mL, 660 nm, 8 J/cm^2", "result": "12 ± 2", "unit": "%"}, {"measurement": "cell viability (%)", "setting": "[6]; 10 μg/mL, no light", "result": "101 ± 4", "unit": "%"}]}
